Legend:
H9c2 rat cardiomyocytes = experiment: Intracellular ATP levels and morphology of H9c2 cardiomyocytes under homocysteic acid (HCA) oxidative stress; assay type: cell-based
Description: H9c2 rat cardiomyocytes were incubated with 10 mM homocysteic acid (HCA) in the absence or presence of various concentrations of compound G as indicated for 24 hours. Cell viability was determined by measuring intracellular ATP levels. Quantitation of intracellular ATP levels was performed using the ViaLight Plus™ kit (Cambrex Cat. No. LT17-221) according to the manufacturers instructions.
Phase contrast microscopy of cells treated with HCA correlated with the results shown for intracellular ATP levels in vehicle (DMSO) and compound G treated cells.

HO-1 protein = HO-1 protein levels in H9c2 cardiomyocytes by ELISA; assay type: cell-based, rat; details: H9c2, 100 μM compound; control 2.86
Description: In another series of experiments, H9c2 rat cardiomyocytes were treated with either vehicle control or with various concentrations (1 μM, 3 μM, 10 μM, 30 μM, and 100 μM) of compound C or compound G. Cell lysates were harvested and HO-1 protein levels determined by ELISA according to the manufacturer's instructions (cat # EKS-810; Stressgen, Victoria, BC, Canada). Data shown below in Table 4 represents values obtain with 100 μM compound.

[1] = test system: Human umbilical vein endothelial cells (HUVEC); experiment: TNF-α induced apoptosis in HUVEC (Annexin V immunostaining, morphology); assay type: cell-based
Description: Human umbilical vein endothelial cells (HUVEC) were plated in DMEM containing 0.5% fetal bovine serum that was supplemented with 1 ng/ml of vascular endothelial growth factor. After overnight culture, the cells were washed with PBS and incubated for an additional 24 hours in DMEM containing 0.5% fetal bovine serum and either vehicle control (DMSO) or 25 μM of compound G. The cell cultures were subsequently washed and re-cultured with DMEM containing 0.5% fetal bovine serum containing 20 ng/ml TNF-α for an additional 4 or 8 hours. The cells were then harvested and immunostained with either FITC-conjugated isotype control or FITC-conjugated Annexin V for identification and determination of cells undergoing apoptosis. (Koopman et al. (1994) Blood 84:1415-1420.) Annexin V preferentially binds negatively charged phospholipids, like phosphatidylserine, which are associated with plasma membrane changes in apoptotic cells. Annexin V binding allows for the identification and quantitation of cells at early stages of apoptosis, when apoptosis occurs in the absence of DNA fragmentation, and the discrimination between cell death associated with apoptosis or with necrosis.
In replicate HUVEC cultures treated as described above, light micrographs were taken of cells treated with vehicle control (DMSO) and compound G following stimulation with 20 ng/ml TNF-α for 4 and 8 hours (FIG. 6). […]

caspase-3 and caspase-7 = experiment: Caspase-3 and caspase-7 fluorometric assay in SH-SY5Y cells challenged with staurosporin; assay type: cell-based, human
Description: SH-SY5Y cells (human neuroblastoma cells) were plated in 96-well culture plates at 60,000 cells per well. Following overnight incubation, cells were washed one time with DMEM containing 1% fetal bovine serum and cultured in identical media with either vehicle control (DMSO) or 20 μM compound G in a total volume of 200 μl per well. After 24 hours, cells were washed with serum-free media and then incubated with DMEM containing 10% fetal bovine serum with either vehicle control (DMSO) or 20 μM compound G in a total volume of 200 μl per well. Replicate cultures received DMEM with 1% fetal bovine serum and were cultured with either vehicle control (DMSO) or 20 μM compound G, in the absence or presence of 500 nM staurosporin, a kinase inhibitor that induces cellular apoptosis by a caspase-dependent mechanism. (Jacobsen et al. (1996) J Cell Biol. 133:1041-51.). After an additional 24 hour incubation, caspase activity was assayed using a caspase-3 and caspase-7 fluorometric assay according to the manufacturer's instructions (Apo-ONE Homogenous Caspase 3/7 Assay, Promega, Wis.).

[2] = test system: gene encoding adrenomedullin; experiment: Adrenomedullin gene expression in peripheral blood mononuclear cells; assay type: cell-based; details: human PBMCs, 5 μM, 20 hours
Description: Adrenomedullin gene expression following compound treatment was also examined in peripheral blood mononuclear cells (PBMCs). Whole human blood was collected and processed immediately. The blood was diluted with an equal volume of phosphate buffered saline. FICOLL-PAQUE PLUS (Amersham Biosciences) was layered under the blood and the tubes were centrifuged at 350×g for 12 minutes at room temperature. PBMCs formed a visible layer in the middle layer of the tube. PBMCs were carefully removed from the tube, diluted with 3 volumes of phosphate buffered saline, and pelleted by centrifugation for 5 minutes at 300×g at room temperature. PBMCs were cultured in DMEM containing 2.5% fetal bovine serum and treated with either 0.25% DMSO or compound G (5 μM) in 0.25% DMSO for 20 hours. The cells were then pelleted and stored at −20° C. in RLT lysis buffer (Qiagen Inc., Valencia, Calif.) containing 1% beta-mercaptoethanol. Total RNA was isolated using the RNeasy kit (Valencia, Calif.).

How did the “intracellular ATP levels in the presence of HCA versus vehicle” value (H9c2 rat cardiomyocytes; H9c2, 10 mM HCA, various concentrations, 24 hours, FIG. 2) turn out when `O=C(O)CNC(=O)c1ncc2cc(Oc3ccccc3)ccc2c1O` [Compound G, [(4-Hydroxy-7-phenoxy-isoquinoline-3-carbonyl)-amino]-acetic acid] was run?
Its value is “dose-dependent increases in intracellular ATP levels”.

And the “cell morphology by phase contrast microscopy under HCA” value (H9c2 rat cardiomyocytes; H9c2, HCA, 30 μM compound, FIG. 3)?
The value was “still confluent, appeared less rounded, and maintained a morphology consistent with viable cardiomyoctes”.

What about the “intracellular ATP levels in cells not incubated with HCA” value (H9c2 rat cardiomyocytes; H9c2, no HCA, data not shown) of the same compound?
The value was “unchanged”.

And the “HO-1 (ng/mg total cell protein)” value (HO-1 protein)?
Its value is 28.54 ng/mg total cell protein.

And the “annexin V immunostaining (mean fluorescence intensity) versus TNF-α alone” value ([1]; 25 μM for 24 hours prior to 20 ng/ml TNF-α for 4 or 8 hours)?
Its value is “reduced annexin V immunostaining”.

And the “HUVEC morphology after TNF-α (light micrographs)” value ([1]; 25 μM prior to 20 ng/ml TNF-α for 4 and 8 hours)?
The value was “viable and normal morphology”.

And the “caspase activity after staurosporine challenge” value (caspase-3 and caspase-7; 20 μM pretreatment, 500 nM staurosporin, 1% fetal bovine serum, FIG. 1)?
Its value is “significantly inhibited”.

What about the “caspase activity in cells not undergoing apoptosis, versus DMSO” value (caspase-3 and caspase-7; 20 μM, 10% fetal bovine serum, no staurosporin) of the same compound?
Its value is “no differences in caspase activity”.

What about the “increase in expression of the gene encoding adrenomedullin compared to non-treated control cells” value [2] of the same compound?
Its value is “greater than 3.518 fold”.

— patent publication US20060251638A1, “Cytoprotection through the use of hif hydroxylase inhibitors” (priority 2003, published 2006)
